Reference: patent US7279548B2, “Identification and isolation of novel polypeptides having WW domains and methods of using same” (Cytogen Corporation, priority 1996, dated 2007)
“Also recorded” adds a separate entry of the source. No end group written: not given here. *: point of attachment. Biotin = O=C1N[C@H]2[C@H](CS[C@H]2CCCCC(=O)*)N1

target: T1, WWP3 WW domain expressed as GST fusion protein (Homo sapiens, UniProt Q96QZ7); assay: ELISA based cross affinity mapping, WWP3 WW domain; format: binding; conditions: biotinylated peptide-streptavidin/alkaline phosphatase complex
T1 construct: made in house
Method: The 16 day mouse embryo cDNA expression library was diluted 1:1000 in SM solution (100 mM NaCl, 8 mM MgSOv4, 50 mM Tris HCl pH 7.5, 0.01% gelatin). To a sterile test tube, 2 μl of diluted mouse embryo library, 100 μl of 10 mM CaCl2, 100 μl of 10 mM MgCl2 and 100 μl of BL21(DE3)pLysE bacterial cells (grown overnight) were added and incubated for 30 minutes at 37° C. The contents of the tube were mixed with 3 ml of 0.6% top agarose, containing […] chloramphenicol, and poured onto a 2xYT plate (90 mm diameter). For a large primary screen, 10–20 plates were prepared with 3×10^4 pfu per plate. After 6 hours incubation at 37° C., a nitrocellulose filter soaked in 10 mM isopropyl-β-D-thiogalactopyranoside (IPTG) was overlaid on each plate and incubated 3–6 hours at 37° C. Before the filters were removed from the plates, they were marked asymmetrically with India ink in a 18 gauge syringe needle. The plates were stored at 4° C. until ready for the secondary screen. The filters were washed with PBS (137 mM NaCl, 2.7 mM KCl, 4.3 mM Na2HPO4, 1.4 mM KH2PO4)-0.05% Triton X-100 three times at room temperature, 15 minutes each wash, and then placed in a plastic bag containing non-specific blocking solution (PBS-2% BSA) for one hour. In the meantime, 1 ml of 1 mM biotinylated peptide in PBS-0.1% Tween 20 was added to 20 ml of 1 mg/ml streptavidin-alkaline phosphatase (SA-AP) in PBS-0.1% Tween 20 and incubated at 4° C. for 30 minutes. As an alternative method of forming multivalent complexes, 50 pmol biotinylated peptide could have been incubated with 2 μg SA-AP (for a biotin:biotin-binding site ratio of 1:1). Excess biotin-binding sites would then be blocked by addition of 500 pmol biotin. As a further alternative, 31.2 μl of 1 mg/ml SA-AP could have been incubated with 15 μl of 0.1 mM biotinylated peptide for 30 min at 4° C. Ten μl of 0.1 mM biotin would then be added, and the solution incubated for an additional 15 min.
To determine the ligand preferences of the novel WW omain-containing clones described in Sections 6.1 and 6.1.1, as well as addressing the issue of whether peptides containing PPPPY (SEQ ID NO:3)-like motifs derived from a variety of proteins could also serve as recognition units and bind to these clones, a cross affinity mapping experiment was performed (FIGS. 15A–D). The peptides shown in FIGS. 15A–D were synthesized, biotinylated, complexed with streptavidin-alkaline phosphatase, and tested in an ELISA based assay for their ability to bind to the twelve individual novel WW domains of WWP1, WWP2, WWP3 and WWP4 which were expressed as GST fusion proteins. The ELISA based cross-affinity experiments were performed essentially as described by Sparks et al. (1996, Proc. Natl. Acad. Sci. 93:1540–1544) with the following modifications. Briefly, microtiter wells were coated with 1–5 μg of fusion protein in 100 mM NaHCO3, blocked with SuperBlock TBS (Pierce) and washed four times with PBS, 0.05% Tween 20. Specific peptide-streptavidin/alkaline phosphatase complexes were added as above and unbound complexes washed five times with PBS, 0.05% Tween 20. Following addition of PNP substrate (p-nitrophenyl phosphate, Kirkegard & Perry Labs), peptide binding was quantitated after 30 min. at O.D. 405 nm. Relative binding measurements from three independent determinations were assigned to a scale as follows: O.D. units 0–0.5=(−), 0.5–1.0=(+), 1.0–2.0=(++), 2.0–3.0=(+++), >3.0=(++++). Peptide binding to human Fyn and Lyn SH3 and SH2 domains was assessed by a filter binding assay (see Section 6.1 and Sparks et al., 1996, Proc. Natl. Acad. Sci 93:1540–1544). […]

T1 sequence (Q96QZ7 300-337 limits assumed): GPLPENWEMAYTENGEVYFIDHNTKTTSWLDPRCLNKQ

Row | Substance | binding to WWP3 WW domain
1 | Biotin-SGSGPGTPYPPPPEFY [WBP-2B] | not
2 | Biotin-SGSGYVQPPPPPYPGPM [WBP-2A] | specifically binds; also recorded: bound
3 | Biotin-SGSGPGTPPPPYTVGPGY [WBP-1] | not
